Data taken from patent publication US20160008243A1, “METHOD OF TREATING HAIR” (priority 2013, published 2016).

Assay: Hair switch straightening test (switch volume after treatment, rinsing, combing and drying)
Protocol: Dark brown European wavy#6 switches of length 25 cm and weight 2 gms, were dosed with 2 ml each of different levels of trans aconitic acid solutions. They were combed straight and left to develop for at least 20 minutes. They were subsequently rinsed for 30 seconds under the tap. They were then combed straight and left to dry overnight. When dry the switches were combed straight and pictures taken. All switches looked straight without the waviness of the pre-treated switches. […] (Here volume refers to the projection of the switch image on to the screen and is given in mm^2).

[1] = 5% solution at pH 2, 2 ml per 2 g switch, at least 20 min, rinsed, dried overnight

Structure (SMILES)	% benefit over water (0.5% solution at pH 2) [%]	Volume in mm^2 (projection of the switch image on to the screen) (0.5% solution at pH 2) [mm^2]	% benefit over water (1% solution at pH 2) [%]	Volume in mm^2 (projection of the switch image on to the screen) (1% solution at pH 2) [mm^2]	% benefit over water (2.5% solution at pH 2) [%]	Volume in mm^2 (projection of the switch image on to the screen) (2.5% solution at pH 2) [mm^2]	% benefit over water (5% solution at pH 2) [%]	Volume in mm^2 (projection of the switch image on to the screen) [1] [mm^2]	% benefit over water (5% solution at pH 3) [%]	Volume in mm^2 (projection of the switch image on to the screen) (5% solution at pH 3) [mm^2]	Hair straightening benefit (in words) (applied to hair, conclusion from the table)
O=C(O)/C=C(\CC(=O)O)C(=O)O [trans Aconitic acid, trans aconitic acid]	15.4	12073	20.4	11363	24.6	10763	40.8	8456	17.3	11812	gives hair straightening benefits
O=C(O)CC(O)(CC(=O)O)C(=O)O [Citric acid, reference compound]							33.6	9481			
